{
  "source": "patent US5252575A",
  "about": "“Antiviral purine derivatives with improved gastrointestinal absorption” (Beecham Group p.l.c., priority 1992, dated 1993)",
  "key": {"[1]": {"assay": "Further evaluation of BRL55792 as oral prodrug of BRL44385: AUC in blood of squirrel monkeys (Table 2)", "format": "in vivo", "conditions": "110 umol/kg, squirrel monkey, single oral dose 0.11 mmol/kg, 0-8 h, 3 animals", "method": "|Further evaluation of BRL55792 as a potential oral prodrug of BRL44385 in |rats and squirrel monkeys | ^a Compounds were administered as a single oral dose at either 0.2 | mmol/kg (equivalent to 44.5 mg/kg free BRL44385) to rats with an | indwelling aortic cannula or 0.11 mmol/kg (equivalent to 25 mg/kg free | BRL44385) to squirrel monkeys. Sequential blood samples were collected up | to 8 h after compound administration. Following treatment as described in | table 1, the samples were assayed for BRL55792, BRL44385 and intermediate | matabolites. | ^b Mean areaunder-the-curve values were calculated from blood | concentrationtime profiles from 3 animals by the trapezoidal rule (0-6 h | for rats and 0-8 h for squirrel monkeys). | ^c AUC of BRL44385 from prodrug/AUC of BRL44385 from oral BRL44385"}, "[2]": {"assay": "Concentrations of BRL44385 and its prodrugs detected in the blood of mice after oral administration (Table 1)", "format": "in vivo, female Balb/c mice", "conditions": "mouse, 200 umol/kg, total 9-alkoxypurines, 0.2 mmol/kg oral gavage", "method": "|Concentrations of BRL44385 and its Prodrugs Detected in the |Blood of Mice after Oral Administration of |9-(Alkoxymethoxypropoxy)purines^a | ^a Compounds were administered as single doses of 0.2 mmol/kg in 0.1 | ml of 1% (carboxymethyl)cellulose by oral gavage to female Balb/c mice | weighing approximately 20 g. Food was withheld for 18 h prior to the star | of the experiment. Blood was collected by cardiac puncture using | heparinised syringes 15, 60 and 180 min after dosing. Equal volumes (0.2 | ml) from three mice were pooled at each time point and 0.6 ml of 16% | trichloroacetic acid was added. After centrifugation, 0.5 ml of | supernatent was added to 0.1 ml of saturated aqueous NaHCO3 followed | by the addition of 0.6 ml of 0.4M NH4 OAc (pH 6.0) and the mixture | analysed by HPLC. | ^b 9-Alkoxypurine concentrations <2 μM were detected in the blood | 180 min after dosing."}},
  "note": "Where two headings read alike, the source gives them in different places.",
  "data": [
    {"compound": "CC(C)OCOCCCOn1cnc2cnc(N)nc21", "note": "[Example 1, 2-Amino-9-[3-(isopropoxymethoxy)propoxy)purine]", "values": [
      {"measurement": "AUC at 8 h", "setting": "[1]; analyte BRL55792, read-out: Mean Area-under-the-curve ± SEM for BRL 55792", "value": "13 ± 5.7", "unit": "µM·h"}
    ]},
    {"compound": "Nc1nc(O)c2ncn(OCCCO)c2n1", "note": "[Example E1, 9-(3-hydroxyprop-1-oxy)guanine]", "values": [
      {"measurement": "concentration at 0.25 h", "setting": "[2]; 15 min, read-out: Concn in blood at time (min) after dosing: total 9-alkoxypurines, 15", "value": 8.9, "unit": "µM"},
      {"measurement": "concentration at 1 h", "setting": "[2]; 60 min, read-out: Concn in blood at time (min) after dosing: total 9-alkoxypurines, 60", "value": 4, "unit": "µM"},
      {"measurement": "AUC at 8 h", "setting": "[1]; analyte BRL44385, read-out: Mean Area-under-the-curve ± SEM for BRL 44385", "value": "13 ± 2.4", "unit": "µM·h"}
    ]}
  ]
}
